Experimental data published in patent publication US20240199572A1, “COMPOUNDS, COMPOSITIONS, AND METHODS FOR TREATING TYPE 2 DIABETES AND DEMENTIA” (THE BOARD OF TRUSTEES OF THE UNIVERSITY OF ILLINOIS, priority 2021, published 2024).

Key:
LXRβ = target: T1, LXRβ (Homo sapiens, UniProt P55055); test: LXRβ NHR screen (DiscoverX NHR-Scan, β-gal reporter); type: cell-based
T1 sequence (P55055 1-460): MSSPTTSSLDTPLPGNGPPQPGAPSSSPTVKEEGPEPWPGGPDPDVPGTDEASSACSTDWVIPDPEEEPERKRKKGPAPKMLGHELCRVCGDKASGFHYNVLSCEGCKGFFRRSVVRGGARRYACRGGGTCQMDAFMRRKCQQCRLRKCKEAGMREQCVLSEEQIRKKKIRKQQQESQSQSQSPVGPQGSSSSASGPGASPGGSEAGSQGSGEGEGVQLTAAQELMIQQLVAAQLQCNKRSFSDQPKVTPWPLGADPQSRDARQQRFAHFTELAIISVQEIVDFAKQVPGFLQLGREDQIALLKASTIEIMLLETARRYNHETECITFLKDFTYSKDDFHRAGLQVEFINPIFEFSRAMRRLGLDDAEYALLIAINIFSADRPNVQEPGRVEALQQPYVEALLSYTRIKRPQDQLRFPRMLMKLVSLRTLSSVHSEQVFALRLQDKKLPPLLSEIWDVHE
Description: (§1) Receptor Binding Assays. Nuclear hormone (NHR) assays were performed by DiscoverX (Fremont, CA) on their NHR-Scan platform of cell-based protein-protein interaction assays. This platform uses a […] reporter that activates upon interaction of full-length receptor protein with steroid coactivator receptor peptides. In agonist mode, activity of CL2-57 at 10 μM was compared to maximal activity of published positive control agonists; in antagonist mode, reduction in activity with 10 μM CL2-57 from that observed at […] of published agonists was quantified.

ABCA1 [1] = test: ABCA1-linked luciferase assay in HepG2 cells; type: cell-based
Description: Luciferase. HepG2 cells (RRID:CVCL 0027) purchased from ATCC and used without further validation were stably transfected with pGreenFire1-LXRE-in-ABCA1 plasmid, which contains the ABCA1 promoter sequence linked to a luciferase response element, then selected over multiple generations with puromycin and frozen in liquid N2. For assays, transfected cells were plated 24 hours in medium (Gibco) containing charcoal-stripped serum (Gemini), followed by a 24-hour treatment. Cells were lysed with passive lysis buffer (Promega), frozen at −80° C. for 15 minutes, and shaken at room temperature for 2 hours before quantification with luciferase assay system (Promega) on a Synergy Neo2 plate reader.

J774 cells [2] = test: Lipopolysaccharide-stimulated J774 cells, TNFα and NOS2; type: cell-based; conditions: co-treatment
From the text: qRT-PCR. For cell samples, treated cells were lysed with RLT plus lysis buffer (Qiagen). RNA was isolated with Qiagen RNEASY® Plus columns per manufacturer instructions, then reverse-transcribed to cDNA using […]® III Reverse Transcriptase (200 U/μL, Invitrogen) per supplier protocol. qPCR experiments were either performed with TAQMAN® gene expression master mix (Invitrogen) on a StepOne™ qPCR instrument or with […]® SYBR® Green SuperMix (Quanta Biosciences) on CFX Connect™ Real-Time PCR Detection System (BioRad), with fold-change quantified by ΔΔCt. For animal samples, 100 mg tissue was homogenized in 1 mL acid-guanidinium-phenol based reagent sold under the tradename TRIZOL® (Ambion), mixed vigorously in chloroform, and separated by centrifugation. Aqueous layer containing RNA was added to Qiagen RNEASY® Plus column; remaining stops were as described above for cell lysates.

ABCA1 [3] = test: ABCA1 firefly reporter assay in CCF-001 cells; type: cell-based; conditions: ABCA1 firefly reporter assay in CCF-001 cells (Table 8)
PPARβ/δ = target: T2, PPARβ/δ (Homo sapiens, UniProt Q03181); test: PPARβ/δ NHR screen, antagonist mode; conditions: cell-based β-gal reporter assay, 10 μM
T2 sequence (Q03181 1-441): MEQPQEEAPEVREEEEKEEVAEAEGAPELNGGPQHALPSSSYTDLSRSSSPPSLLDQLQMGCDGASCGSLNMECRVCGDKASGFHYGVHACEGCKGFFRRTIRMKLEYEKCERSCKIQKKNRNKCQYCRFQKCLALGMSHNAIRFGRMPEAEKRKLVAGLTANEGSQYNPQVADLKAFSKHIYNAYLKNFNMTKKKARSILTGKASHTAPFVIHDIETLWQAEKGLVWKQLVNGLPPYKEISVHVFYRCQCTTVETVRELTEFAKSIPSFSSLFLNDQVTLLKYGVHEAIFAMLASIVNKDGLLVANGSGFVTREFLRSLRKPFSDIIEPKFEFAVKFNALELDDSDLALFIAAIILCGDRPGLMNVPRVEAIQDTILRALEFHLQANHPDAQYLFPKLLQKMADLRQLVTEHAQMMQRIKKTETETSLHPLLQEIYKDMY
Description: as §1

LXRα = target: T3, LXRα (Homo sapiens, UniProt Q13133); test: LXRα NHR screen (DiscoverX NHR-Scan, β-gal reporter); type: cell-based
T3 sequence (Q13133 1-447): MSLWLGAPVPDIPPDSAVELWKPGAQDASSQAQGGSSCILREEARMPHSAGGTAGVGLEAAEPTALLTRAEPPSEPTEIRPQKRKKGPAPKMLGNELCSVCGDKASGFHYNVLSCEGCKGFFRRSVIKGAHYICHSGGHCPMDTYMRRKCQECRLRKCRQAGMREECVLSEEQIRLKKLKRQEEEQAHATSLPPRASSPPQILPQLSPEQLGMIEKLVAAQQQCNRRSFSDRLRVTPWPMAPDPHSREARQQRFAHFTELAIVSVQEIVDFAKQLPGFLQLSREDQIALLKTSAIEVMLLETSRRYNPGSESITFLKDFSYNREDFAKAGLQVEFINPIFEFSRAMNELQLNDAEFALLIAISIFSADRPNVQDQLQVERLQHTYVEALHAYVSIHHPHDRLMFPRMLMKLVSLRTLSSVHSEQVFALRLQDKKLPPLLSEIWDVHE
Description: as §1

J774 cells [4] = test: BODIPY-cholesterol efflux from J774 macrophages to apoA1; type: cell-based
Description: Cholesterol Efflux. Plated J774 cells (RRID:CVCL 0358) purchased from ATCC and used without further validation were incubated in serum-free medium containing 0.5 μM BODIPY-cholesterol (Cayman) for 24 hours. Medium was replaced with fresh serum-free medium containing test compound for 24 hours. For experiments with probucol (Sigma), it was added at 20 μM for the final 2 hours with test compound. Then, fresh serum-free medium containing 20 μg/mL purified recombinant apolipoprotein A1 (Sigma) was added for 6 hours. Acceptor-containing medium was transferred to a new plate, while cells were lysed with RIPA buffer. Fluorescence (Ex480/Em530) was measured in both components, with data reported as % efflux=(medium fluorescence)/(medium fluorescence+lysate fluorescence) normalized to background efflux (% efflux in DMSO-treated cells without exogenous apoA1).

CCOC(=O)c1cccc(NC(=O)c2sc(Cl)cc2S(=O)(=O)N(C)c2ccc(OCC)c(OCC)c2)c1 [CL2-57, ethyl 3-(5-chloro-3-(N-(3,4-diethoxyphenyl)-N-methylsulfamoyl)thiophene-2-carboxamido) benzoate]
LXRβ NHR screen, activity of CL2-57 (10 μM) as % of T0901317 (1 μM) (LXRβ; 10 μM): 75%
LXR β/α selectivity by Emax (LXRβ; cell-based β-gal reporter assays): 2.5 fold
Functional mode at LXR (LXRβ; cell-based β-gal reporter assays, 10 μM): partial LXR agonist
ABCA1 luciferase, activity of CL2-57 (10 μM) as % of T0901317 (1 μM) (ABCA1 [1]; 10 μM): 127%
Emax, ABCA1-linked luciferase activity (ABCA1 [1]; HepG2 liver cells): 250 % of vehicle
EC50 (ABCA1 [1]; Homo sapiens, HepG2 liver cells, read-out: EC50, ABCA1-linked luciferase activity): 1.8 µM
ABCA1-linked luminescence with CL2-57 titration (ABCA1 [1]; in the presence of RXR agonist bexarotene, increased from 2.5-fold): 4.5 fold
ABCA1-linked luminescence with CL2-57 titration (ABCA1 [1]; in the presence of pan-LXR agonist T0901317): no increase
LPS-induced increase of NOS2 (J774 cells [2]): dose-dependently reversed
LPS-induced increase of TNFα (J774 cells [2]): dose-dependently reversed
EC50 (ABCA1 [3]): 0.817 µM
Functional mode at PPARβ/δ (PPARβ/δ): weak antagonist
LXRα NHR screen, activity of CL2-57 (10 μM) as % of T0901317 (1 μM) (LXRα): 34%
Cholesterol Efflux - J774, activity of CL2-57 (10 μM) as % of T0901317 (1 μM) (J774 cells [4]; 10 μM): 183%
Cholesterol efflux from macrophages to apoA1 (J774 cells [4]; fluorescent BODIPY-tagged cholesterol): dose-dependently increased
Increased cholesterol efflux with ABCA1 inhibitor probucol (J774 cells [4]; probucol 20 μM for the final 2 hours): blocked
